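How tested: cells in 96-well plates exposed to compound for 48 hours at five concentrations. The concentration for 50% growth inhibition is given as GI50. TGI is the concentration that stops growth completely.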
Experiments:
Test in all cases: NCI tumour cell line growth inhibition, 48 h
[1] = test system: A549 NSCLC
[2] = test system: ACHN renal
[3] = test system: BT-549 breast
[4] = test system: CAKI-1 renal
[5] = test system: CCRF-CEM leukemia
[6] = test system: COLO 205 colon
[7] = test system: DU-145 prostate
[8] = test system: EKVX NSCLC
[9] = test system: HCT-116 colon
[10] = test system: HCT-15 colon
[11] = test system: HL-60(TB) leukemia
[12] = test system: HOP-62 NSCLC
[13] = test system: HS 578T breast
[14] = test system: HT29 colon
[15] = test system: IGROV1 ovarian
[16] = test system: K-562 leukemia
[17] = test system: KM12 colon
[18] = test system: LOX IMVI melanoma
[19] = test system: M14 melanoma
[20] = test system: MALME-3M melanoma
[21] = test system: MCF7 breast
[22] = test system: MDA-MB-231 breast
[23] = test system: MDA-MB-435
[24] = test system: MOLT-4 leukemia
[25] = test system: NCI-H23 lung
[26] = test system: NCI-H460 lung
[27] = test system: NCI/ADR-RES ovarian
[28] = test system: OVCAR-3 ovarian
[29] = test system: OVCAR-4 ovarian
[30] = test system: OVCAR-5 ovarian
[31] = test system: OVCAR-8 ovarian
[32] = test system: PC-3 prostate
[33] = test system: RPMI-8226 leukemia
[34] = test system: RXF 393 renal
[35] = test system: SF-268 CNS
[36] = test system: SF-295 CNS
[37] = test system: SF-539 CNS
[38] = test system: SK-MEL-28 melanoma
[39] = test system: SK-MEL-5 melanoma
[40] = test system: SK-OV-3 ovarian
[41] = test system: SN12C renal
[42] = test system: SNB-19 CNS
[43] = test system: SNB-75 CNS
[44] = test system: SR leukemia
[45] = test system: SW-620 colon
[46] = test system: T-47D breast
[47] = test system: TK-10 renal
[48] = test system: U251 CNS
[49] = test system: UACC-257 melanoma
[50] = test system: UACC-62 melanoma
[51] = test system: UO-31 renal
[52] = test system: 786-0 renal
[53] = test system: HCC-2998 colon
[54] = test system: HOP-92 NSCLC
[55] = test system: NCI-H226 lung
[56] = test system: NCI-H522 lung
[57] = test system: SK-MEL-2 melanoma

## CC(=O)c1c(-c2ccco2)c(C#N)c(=S)n(C2OC(CO)C(O)C(O)C2O)c1-c1ccccc1 (stereo not drawn)
[1]
  TGI: > 100 µM
[2]
  TGI: > 100 µM
[3]
  TGI: > 100 µM
[4]
  TGI: > 100 µM
[5]
  TGI: > 100 µM
[6]
  TGI: > 100 µM
[7]
  TGI: > 100 µM
[8]
  TGI: > 100 µM
[9]
  TGI: > 100 µM
[10]
  TGI: > 100 µM
[11]
  TGI: 85.9 µM
[12]
  TGI: > 100 µM
[13]
  TGI: > 100 µM
[14]
  TGI: > 100 µM
[15]
  TGI: > 100 µM
[16]
  TGI: > 100 µM
[17]
  TGI: > 100 µM
[18]
  TGI: > 100 µM
[19]
  TGI: > 100 µM
[20]
  TGI: > 100 µM
[21]
  TGI: > 100 µM
[22]
  TGI: > 100 µM
[23]
  TGI: > 100 µM
[24]
  TGI: > 100 µM
[25]
  TGI: > 100 µM
[26]
  TGI: > 100 µM
[27]
  TGI: > 100 µM
[28]
  TGI: > 100 µM
[29]
  TGI: > 100 µM
[30]
  TGI: > 100 µM
[31]
  TGI: > 100 µM
[32]
  TGI: > 100 µM
[33]
  TGI: > 100 µM
[34]
  TGI: > 100 µM
[35]
  TGI: > 100 µM
[36]
  TGI: > 100 µM
[37]
  TGI: > 100 µM
[38]
  TGI: > 100 µM
[39]
  TGI: > 100 µM
[40]
  TGI: > 100 µM
[41]
  TGI: > 100 µM
[42]
  TGI: 59.7 µM
[43]
  TGI: > 100 µM
[44]
  TGI: > 100 µM
[45]
  TGI: > 100 µM
[46]
  TGI: > 100 µM
[47]
  TGI: > 100 µM
[48]
  TGI: > 100 µM
[49]
  TGI: > 100 µM
[50]
  TGI: > 100 µM
[51]
  TGI: > 100 µM

## CCN(CC)CCn1c(N)c(-c2nc3ccccc3n2C)c2nc(C#N)c(C#N)nc21
[52]
  GI50: 1.01 µM
  TGI: 2.91 µM
[1]
  GI50: 3.2 µM
  TGI: 13.7 µM
[2]
  GI50: 0.696 µM
  TGI: 1.53 µM
[3]
  GI50: 7.64 µM
  TGI: 18.3 µM
[4]
  GI50: 3.7 µM
  TGI: 11.2 µM
[5]
  GI50: 4.25 µM
  TGI: 37.9 µM
[6]
  GI50: 3.84 µM
  TGI: > 28.1 µM
[7]
  GI50: 3.93 µM
  TGI: 13 µM
[8]
  GI50: 7.1 µM
  TGI: 20.5 µM
[53]
  GI50: 0.696 µM
  TGI: 1.41 µM
[9]
  GI50: 1.94 µM
  TGI: > 18.5 µM
[10]
  GI50: 5.9 µM
  TGI: > 27.1 µM
[11]
  GI50: 2.84 µM
  TGI: > 50 µM
[12]
  GI50: 2.65 µM
  TGI: 11 µM
[54]
  GI50: 2.5 µM
  TGI: 12.1 µM
[13]
  GI50: 2.52 µM
  TGI: 11.7 µM
[15]
  GI50: 1.3 µM
  TGI: 14.3 µM
[16]
  GI50: 3.31 µM
  TGI: > 42.2 µM
[17]
  GI50: 5.65 µM
  TGI: 20.3 µM
[18]
  GI50: 0.97 µM
  TGI: 2.62 µM
[19]
  GI50: 7.21 µM
  TGI: 30.8 µM
[21]
  GI50: 3.08 µM
  TGI: > 50 µM
[22]
  GI50: 0.295 µM
  TGI: 1.71 µM
[23]
  GI50: 6.23 µM
  TGI: > 32.4 µM
[24]
  GI50: 1.81 µM
  TGI: 11.1 µM
[55]
  GI50: 9.57 µM
  TGI: 39.8 µM
[25]
  GI50: 1.7 µM
  TGI: 16.2 µM
[26]
  GI50: 4.58 µM
  TGI: 38.5 µM
[56]
  GI50: 3.72 µM
  TGI: 24.9 µM
[27]
  GI50: 3.1 µM
  TGI: 8.86 µM
[28]
  GI50: 1.52 µM
  TGI: 7.31 µM
[29]
  GI50: 1.86 µM
  TGI: 9.91 µM
[30]
  GI50: 3.96 µM
  TGI: 12.7 µM
[31]
  GI50: 3.43 µM
  TGI: 13.8 µM
[32]
  GI50: 1.8 µM
  TGI: > 19.5 µM
[33]
  GI50: 1.97 µM
  TGI: > 12.1 µM
[34]
  GI50: 1.98 µM
  TGI: 4.46 µM
[35]
  GI50: 3.64 µM
  TGI: 22.4 µM
[36]
  GI50: 5.62 µM
  TGI: 15.6 µM
[37]
  GI50: 2.8 µM
  TGI: 9.43 µM
[57]
  GI50: 6.28 µM
  TGI: 25.6 µM
[38]
  GI50: 0.6 µM
  TGI: 3.02 µM
[39]
  GI50: 3.04 µM
  TGI: 12.8 µM
[40]
  GI50: 5.21 µM
  TGI: 14.3 µM
[41]
  GI50: 3.09 µM
  TGI: 14.2 µM
[42]
  GI50: 7.3 µM
  TGI: 21.5 µM
[44]
  GI50: 12.2 µM
  TGI: > 50 µM
[45]
  GI50: 2.59 µM
  TGI: > 21.8 µM
[46]
  GI50: 1.68 µM
[47]
  GI50: 7.16 µM
  TGI: 14.2 µM
[48]
  GI50: 1.27 µM
  TGI: 4.06 µM
[49]
  GI50: 2.23 µM
  TGI: 10.3 µM
[50]
  GI50: 3.44 µM
  TGI: 15 µM
[51]
  GI50: 2.06 µM
  TGI: 6.61 µM
